The source of these data is paper PMC7024175, “In Depth Analysis of Kinase Cross Screening Data to Identify CAMKK2 Inhibitory Scaffolds” (Molecules, 2020).

In one data set the test system is BRD4. The settings on record: cited from earlier work.
In data set [1] the target is T1, CAMKK2 (Homo sapiens, UniProt Q96RR4).
T1 construct: made in house
Kind of data set: CAMKK2 enzyme assay (radiometric, CaMKKtide). It is filed as biochemical. Particulars: for remaining activity at 0.1 µM / remaining activity at 1 µM / remaining activity at 0.01 µM: read-out: PoC (activity remaining).
Procedure: CAMKK2 activity was determined by measuring the transfer of radiolabeled phosphate from [γ-^32P]-ATP to a synthetic peptide substrate (CaMKKtide) as previously described [49]. Briefly, purified recombinant CAMKK2 (100 pM) was incubated in assay buffer (50 mM HEPES [pH 7.4], 1 mM DTT, 0.02% [v/v] Brij-35) containing 200 μM CaMKKtide (Genscript), 100 μM CaCl2, 1 μM CaM (Sigma-Aldrich, Castle Hill, NSW, Australia) 200 μM [γ-^32P]-ATP (Perkin Elmer, Boston, MA, USA), 5 mM MgCl2 (Sigma-Aldrich, Castle Hill, NSW, Australia) and various concentrations of inhibitors (0–1 μM) in a standard 30 μl assay for 10 min at 30 °C. Reactions were terminated by spotting 15 μl onto P81 phosphocellulose paper (GE Lifesciences, Paramatta, NSW, Australia) and washing extensively in 1% phosphoric acid (Sigma-Aldrich, Castle Hill, NSW, Australia). Radioactivity was quantified by liquid scintillation counting.

Data set [2] deals with CAMKK2. Particulars: activity reported in the literature; cited from earlier work.
In another data set the test system is mice. Particulars: mouse, in vivo; cited from earlier work.
The subject of data set [3] is aryl hydrocarbon receptor. Details: method as in PMID 18755850. Particulars: cited from earlier work.
Another data set deals with casein kinase 2 (CK2). Details: method as in earlier work. The settings on record: ref 80 (Bain et al.); cited from earlier work.
For data set [4] the following is noted: cited from earlier work.
The conditions of data set [5]: HLM, mass spectrometry analysis; cited from earlier work.

In general, remaining activity refers to the activity still measured, relative to the control. A word on the IC50: it is the midpoint of a concentration-inhibition curve.

T1 sequence (Q96RR4 whole entry): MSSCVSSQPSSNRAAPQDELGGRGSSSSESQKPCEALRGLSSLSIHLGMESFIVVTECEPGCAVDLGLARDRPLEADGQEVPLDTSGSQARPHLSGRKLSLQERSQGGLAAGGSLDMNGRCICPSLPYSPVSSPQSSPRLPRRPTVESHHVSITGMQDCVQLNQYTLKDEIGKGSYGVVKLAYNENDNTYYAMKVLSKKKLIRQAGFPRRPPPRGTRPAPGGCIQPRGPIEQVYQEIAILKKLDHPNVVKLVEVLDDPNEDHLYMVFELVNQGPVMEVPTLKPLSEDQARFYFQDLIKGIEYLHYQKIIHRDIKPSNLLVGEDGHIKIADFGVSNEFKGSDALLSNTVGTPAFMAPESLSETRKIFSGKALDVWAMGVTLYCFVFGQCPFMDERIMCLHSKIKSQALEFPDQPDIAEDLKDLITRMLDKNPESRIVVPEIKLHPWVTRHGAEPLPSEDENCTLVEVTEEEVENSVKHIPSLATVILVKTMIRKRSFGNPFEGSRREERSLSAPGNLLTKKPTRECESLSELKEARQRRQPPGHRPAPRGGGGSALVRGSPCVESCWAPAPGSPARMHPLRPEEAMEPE

As for `CC[C@@H]1C(=O)N(C)c2cnc(Nc3ccc(C(=O)NC4CCN(C)CC4)cc3OC)nc2N1C1CCCC1` [BI2536], the BRD4 inhibition entry with BRD4 is “potent inhibitor of BRD4”.

In the case of `O=C(O)c1ccc(-c2c[nH]c3ncc(-c4ccccc4)cc23)cc1C1CCCC1` [GSK650394], the remaining activity at 0.1 µM on CAMKK2 [1] (0.1 µM inhibitor) was 4%. The remaining activity at 1 µM on CAMKK2 [1] (1.0 µM inhibitor) was determined as 3%. Besides, in the data set on CAMKK2 [2], the “pIC50 CAMKK2 reported in the literature” value was 9.2.

In the case of `Cn1cc(C2=C(c3cn(CCCSC(=N)N)c4ccccc34)C(=O)NC2=O)c2ccccc21` [Ro 31-8220], the results for the “PoC (activity remaining)” value at CAMKK2 [1] (0.01 µM inhibitor), on CAMKK2 [1] (0.1 µM inhibitor) and at CAMKK2 [1] (1.0 µM inhibitor) were 100%, 100% and 85%, respectively.

Turning to `O=C1NC(=NCc2cccs2)S/C1=C\c1ccc2ncccc2c1` [Ro 3306], the “PoC (activity remaining)” value on CAMKK2 [1] (0.01 µM inhibitor) was found to be 94%; on CAMKK2 [1] (0.1 µM inhibitor), 94%; on CAMKK2 [1] (1.0 µM inhibitor) it was 88%.

For the compound `O=C1NC(=O)c2c1c1c3ccccc3n3c1c1c2c2ccccc2n1C1CCC3O1` [SB 218078], the “PoC (activity remaining)” value is listed as 98% at CAMKK2 [1] (0.01 µM inhibitor), 86% on CAMKK2 [1] (0.1 µM inhibitor) and 64% at CAMKK2 [1] (1.0 µM inhibitor).

As to `O=C(O)c1ccc2c3c1cccc3c(=O)n1c3ccccc3nc21` [STO 609, 7-oxo-7H-benzimidazo[2,1-a]benz[de]isoquinoline-3-carboxylic acid], the “tolerability, hepatic and renal toxicity” value in the data set on mice is recorded as “well tolerated in mice without significant hepatic or renal toxicity”. In data set [3], the “aryl hydrocarbon receptor binding/activation” value was “binds and activates the aryl hydrocarbon receptor”. The IC50 on casein kinase 2 (CK2) was 190 nM. For the same compound, the aqueous solubility entry in data set [4] is on record as “poor aqueous solubility”. The “metabolism on exposure to human liver microsomes” value in data set [5] was “metabolized to three mono-hydroxylated byproducts, principally by CYP1A2”. Also, on CAMKK2 [1] (0.01 µM inhibitor), the remaining activity at 0.01 µM was determined as 63%. In addition, the remaining activity at 0.1 µM on CAMKK2 [1] (0.1 µM inhibitor) is 56%. Further, at CAMKK2 [1] (1.0 µM inhibitor), the remaining activity at 1 µM was determined as 21%.

As to `CN(C)S(=O)(=O)c1ccc2c(c1)/C(=C/c1cc3c([nH]1)CCCC3)C(=O)N2` [SU6656], the remaining activity at 0.01 µM at CAMKK2 [1] (0.01 µM inhibitor) is 95%. Besides, at CAMKK2 [1] (0.1 µM inhibitor), the remaining activity at 0.1 µM was found to be 86%. The remaining activity at 1 µM at CAMKK2 [1] (1.0 µM inhibitor) was 71%.

For `CNC(=O)c1ccccc1Nc1nc(Nc2ccc(N3CCOCC3)cc2OC)ncc1Cl` [TAE226], the “PoC (activity remaining)” value was 104% on CAMKK2 [1] (0.01 µM inhibitor), 97% on CAMKK2 [1] (0.1 µM inhibitor) and 90% on CAMKK2 [1] (1.0 µM inhibitor).

Take `COc1cc(N2CCC(N3CCN(C)CC3)CC2)ccc1Nc1ncc(Cl)c(Nc2ccccc2S(=O)(=O)C(C)C)n1` [TAE684]: the remaining activity at 0.01 µM on CAMKK2 [1] (0.01 µM inhibitor) is 97%. For the same compound, the remaining activity at 0.1 µM at CAMKK2 [1] (0.1 µM inhibitor) was 87%. In addition, the remaining activity at 1 µM on CAMKK2 [1] (1.0 µM inhibitor) is 42%.

In the case of `N#Cc1c(Oc2ccc(F)c(NC(=O)Cc3cccc(C(F)(F)F)c3)c2)ccc2nc(NC(=O)C3CC3)sc12` [TAK632], the “PoC (activity remaining)” value is on record as 92% at CAMKK2 [1] (0.01 µM inhibitor), 87% at CAMKK2 [1] (0.1 µM inhibitor) and 82% on CAMKK2 [1] (1.0 µM inhibitor).

For `CC(C)c1cc(CNc2nc(Nc3cc(C4CC4)[nH]n3)cc(N3CCN(C)CC3)n2)on1` [XL228], the remaining activity at 0.01 µM on CAMKK2 [1] (0.01 µM inhibitor) was found to be 94%. Further, the remaining activity at 0.1 µM on CAMKK2 [1] (0.1 µM inhibitor) worked out at 65%. In addition, on CAMKK2 [1] (1.0 µM inhibitor), the remaining activity at 1 µM was 26%.
